# Experimental data reported in patent EP2739618B1, “QUINAZOLINE COMPOUNDS AS SERINE/THREONINE KINASE INHIBITORS” (Array Biopharma, Inc., priority 2011, dated 2013).
# Biological target: T1, human ERK-2 (Mitogen Activated Kinase 1) (Homo sapiens, UniProt P28482)
# T1 construct: N-terminal 6-His fusion protein in E. coli and corresponding to aa 8-360; 6-His (N); made in house; host or cells: E. coli
# Test: ERK-2 Enzymatic Assay
# Type: biochemical
# Conditions: TABLE I; 5nM ERK-2 enzyme, 25µM ATP, S/T17 peptide substrate; single assay or mean of multiple assays
# Protocol: Compounds were tested in an enzymatic assay using human ERK-2 (Mitogen Activated Kinase 1), recombinantly expressed as an N-terminal 6-His fusion protein in E. coli and corresponding to aa 8-360. The substrate used was the fluorescent Omnia peptide S/T17 (Invitrogen of Carlsbad, CA; Cat. KNZ1171C). Test compounds were diluted in DMSO in 3-fold serial dilutions at 100x final concentrations. […] The assay was run at ambient temperature in a white 384-well polypropylene plate (Nunc, Inc of Naperville, IL; Cat. 267462) collecting data every 50 seconds for approximately 30 minutes on an Envision plate reader (PerkinElmer, Inc. of Waltham, MA); Excitation 340 nm/Emission 495 nm. The data collected from each well was fit to a straight line and the resulting rates were used to calculate percent of control. Percent of control was plotted against compound concentration and IC50 values were determined using a four-parameter fit. Representative data is in TABLE I and TABLE II. The reported IC50 may be from a single assay or the mean of multiple assays.
# T1 sequence (P28482 8-360): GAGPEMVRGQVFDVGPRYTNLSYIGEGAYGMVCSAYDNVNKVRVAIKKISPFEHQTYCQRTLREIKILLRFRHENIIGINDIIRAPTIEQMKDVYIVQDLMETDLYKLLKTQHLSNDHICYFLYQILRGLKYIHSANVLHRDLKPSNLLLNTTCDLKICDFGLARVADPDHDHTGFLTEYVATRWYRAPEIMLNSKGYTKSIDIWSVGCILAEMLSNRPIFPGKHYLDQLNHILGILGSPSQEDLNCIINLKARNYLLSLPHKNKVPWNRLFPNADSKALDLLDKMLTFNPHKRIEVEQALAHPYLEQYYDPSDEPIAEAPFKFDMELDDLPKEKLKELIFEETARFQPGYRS
row,IC50 [nM],Molecule
1,15,"COc1ccc([C@H](NC(=O)c2cc(F)c3cnc(NCCCF)nc3c2)c2cnn(C)c2)cc1F [Compound I-59, 5-Fluoro-2-(3-fluoro-propylamino)-quinazoline-7-carboxylic acid [(S)-(3-fluoro-4-methoxy-phenyl)-(1-methyl-1H-pyrazol-4-yl)-methyl]-amide]"
2,22,2-(tetrahydro-pyran-4-ylamino)-quinazoline-7-carboxylic acid [(R)-(4-cyano-3-fluoro-phenyl)-(1-methyl-1H-pyrazol-4-yl)-methyl]-amide [Compound I-45]
3,0.6,"Cn1cc([C@@H](NC(=O)c2cc(F)c3cnc(NC4CCOCC4)nc3c2)c2ccc(C#N)c(Cl)c2)cn1 [Compound I-65, 5-Fluoro-2-(tetrahydro-pyran-4-ylamino)-quinazoline-7-carboxylic acid [(S)-(3-chloro-4-cyano-phenyl)-(1-methyl-1H-pyrazol-4-yl)-methyl]-amide]"
4,73.6,O=C(N[C@H](c1ccc(F)c(Cl)c1)[C@@]1(F)CCNC1)c1ccc2cnc(NC3CCOCC3)nc2c1 [Compound I-37]
5,15.8,"Cn1cc([C@@H](NC(=O)c2ccc3cnc(N[C@@H]4CCOC[C@@H]4F)nc3c2)c2ccc(Cl)c(F)c2)cn1 [Compound I-27, 2-((3R,4R)-3-fluoro-tetrahydropyran-4-ylamino)-quinazoline-7-carboxylic acid [(S)-(4-chloro-3-fluoro-phenyl)-(1-methyl-1H-pyrazol-4-yl)-methyl]-amide]"
6,2,"COc1ccc([C@@H](NC(=O)c2ccc3cnc(N[C@H](C)C4CC4)nc3c2)[C@@H]2CCCN2)cc1F (stereo in doubt) [Compound I-26, 2-((R)-1-cyclopropyl-ethylamino)-quinazoline-7-carboxylic acid [(S)-(3-fluoro-4-methoxy-phenyl)-(R)-pyrrolidin-2-yl-methyl]-amide]"
7,12.8,"CCn1ccc([C@H](NC(=O)c2ccc3cnc(NC4CCOCC4)nc3c2)c2ccc(Cl)c(F)c2)n1 [Compound I-18, 2-(tetrahydropyran-4-ylamino)-quinazoline-7-carboxylic acid [(R)-(4-chloro-3-fluoro-phenyl)-(1-ethyl-1H-pyrazol-3-yl)-methyl]-amide]"
8,65.4,O=C(N[C@H](c1ccc(F)c(Cl)c1)[C@]1(F)CCNC1)c1ccc2cnc(NC3CCOCC3)nc2c1 [Compound I-38]
9,2.6,"COc1ccc([C@H](NC(=O)c2cc(F)c3cnc(N[C@H]4CCOC[C@H]4F)nc3c2)c2cnn(C)c2)cc1F [Compound I-52, 5-fluoro-N-((S)-(3-fluoro-4-methoxyphenyl)(1-methyl-1H-pyrazol-4-yl)methyl)-2-((3S,4S)-3-fluorotetrahydro-2H-pyran-4-ylamino)quinazoline-7-carboxamide]"
10,2,"Cn1ccc([C@@H](NC(=O)c2ccc3cnc(NC4CCOCC4)nc3c2)c2ccc(Cl)c(F)c2)n1 [Compound I-20, 2-(tetrahydropyran-4-ylamino)-quinazoline-7-carboxylic acid [(S)-(4-chloro-3-fluoro-phenyl)-(1-methyl-1H-pyrazol-3-yl)-methyl]-amide]"
11,1.8,"O=C(N[C@H](c1ccc(C(F)(F)F)c(F)c1)[C@@H]1CCCN1)c1ccc2cnc(NC3CCOCC3)nc2c1 (stereo in doubt) [Compound I-7, 2-(tetrahydropyran-4-ylamino)-quinazoline-7-carboxylic acid [(S)-(3-fluoro-4-trifluoromethyl-phenyl)-(R)-pyrrolidin-2-yl-methyl]-amide]"
12,3.8,"Cn1cc([C@@H](NC(=O)c2ccc3cnc(N[C@H]4CCOC[C@@H]4F)nc3c2)c2ccc(Cl)c(F)c2)cn1 [Compound I-29, 2-((3R,4S)-3-fluoro-tetrahydropyran-4-ylamino)-quinazoline-7-carboxylic acid [(S)-(4-chloro-3-fluoro-phenyl)-(1-methyl-1H-pyrazol-4-yl)-methyl]-amide]"
13,7.2,"Cn1cc([C@@H](NC(=O)c2ccc3cnc(N[C@H]4CCO[C@H](CO)C4)nc3c2)c2ccc(Cl)c(F)c2)cn1 [Compound I-42, 2-((2S,4S)-2-hydroxymethyl-tetrahydro-pyran-4-ylamino)-quinazoline-7-carboxylic acid [(S)-(4-chloro-3-fluoro-phenyl)-(1-methyl-1H-pyrazol-4-yl)-methyl]-amide]"
14,141,"COc1ccc([C@@H](NC(=O)c2ccc3cnc(NC4CCOCC4)nc3c2)c2cnn(C)c2)cc1C#N [Compound I-49, (R)-N-((3-cyano-4-methoxyphenyl)(1-methyl-1H-pyrazol-4-yl)methyl)-2-(tetrahydro-2H-pyran-4-ylamino)quinazoline-7-carboxamide]"
15,2.3,"O=C(N[C@H](c1ccc(Cl)c(F)c1)[C@@H]1CCCN1)c1ccc2cnc(NC3CCOCC3)nc2c1 (stereo in doubt) [Compound I-23, 2-(tetrahydropyran-4-ylamino)-quinazoline-7-carboxylic acid [(S)-(4-chloro-3-fluoro-phenyl)-(R)-pyrrolidin-2-yl-methyl]-amide]"
16,4,"COc1ccc([C@H](NC(=O)c2cc(F)c3cnc(N[C@@H]4CCOC4)nc3c2)c2cnn(C)c2)cc1F (stereo in doubt) [Compound I-62, 5-Fluoro-N-((S)-(3-fluoro-4-methoxyphenyl)(1-methyl-1H-pyrazol-4-yl)methyl)-2-((R)-tetrahydrofuran-3-ylamino)quinazoline-7-carboxamide]"
17,2.1,"Cn1cc([C@@H](NC(=O)c2ccc3cnc(N[C@@H]4CCOC[C@H]4F)nc3c2)c2ccc(Cl)c(F)c2)cn1 [Compound I-30, 2-((3S,4R)-3-fluoro-tetrahydropyran-4-ylamino)-quinazoline-7-carboxylic acid [(S)-(4-chloro-3-fluoro-phenyl)-(1-methyl-1H-pyrazol-4-yl)-methyl]-amide]"
18,1.6,O=C(N[C@@H](c1ccc(F)c(Cl)c1)[C@]1(F)CCNC1)c1ccc2cnc(NC3CCOCC3)nc2c1 [Compound I-36]
19,9,"COc1ccc([C@@H](NC(=O)c2cc(F)c3cnc(NC4CCOCC4)nc3c2)[C@@H]2CCCN2)cc1F (stereo in doubt) [Compound I-25, 5-fluoro-2-(tetrahydropyran-4-ylamino)-quinazoline-7-carboxylic acid [(S)-(3-fluoro-4-methoxy-phenyl)-(R)-pyrrolidin-2-yl-methyl]-amide]"
20,1.1,"COc1ccc([C@H](NC(=O)c2ccc3cnc(NC4CCOCC4)nc3c2)c2cnn(C)c2)cc1F [Compound I-32, 2-(tetrahydropyran-4-ylamino)-quinazoline-7-carboxylic acid [(S)-(3-fluoro-4-methoxy-phenyl)-(1-methyl-1H-pyrazol-4-yl)-methyl]-amide]"

# Same assay, conditions: TABLE II; 5nM ERK-2 enzyme, 25µM ATP, S/T17 peptide substrate; single assay or mean of multiple assays
row,IC50 [nM],Molecule
1,4.3,COc1ccc([C@H](NC(=O)c2cc(F)c3cnc(N[C@@H]4CCOC[C@@H]4F)nc3c2)c2cnn(C)c2)cc1F [II-15]
2,12.1,Cn1cc(C(NC(=O)c2ccc3cnc(NC4CCOCC4)nc3c2)c2ccc(OC(F)F)cc2)cn1 (stereo not shown) [II-43]
3,13.9,COc1ccc([C@H](NC(=O)c2cc(F)c3cnc(NCCC#N)nc3c2)c2cnn(C)c2)cc1F [II-11]
4,2.1,COc1ccc([C@H](NC(=O)c2ccc3cnc(Nc4ccnn4C)nc3c2)c2cnn(C)c2)cc1F [II-16]
5,14.6,Cc1cc(Nc2ncc3ccc(C(=O)N[C@@H](c4ccc(Cl)c(F)c4)c4cnn(C)c4)cc3n2)n(C)n1 [II-24]
6,6.8,COc1ccc([C@H](NC(=O)c2cc(F)c3cnc(Nc4cn(C)nc4C)nc3c2)c2cnn(C)c2)cc1F [II-19]
7,2.2,COc1ccc([C@H](NC(=O)c2cc(F)c3cnc(NC4CCOCC4)nc3c2)c2ccnn2C)cc1F [II-29]
8,52.8,COc1ccc([C@H](NC(=O)c2ccc3cnc(NC4CS(=O)(=O)C4)nc3c2)c2cnn(C)c2)cc1F [II-3]
9,85.5,COc1ccc([C@H](NC(=O)c2cc(F)c3cnc(NC4CCOCC4)nc3c2)c2cn(C)cn2)cc1F [II-49]
10,6.9,O=C(N[C@@H](c1ccc(OC(F)(F)F)c(F)c1)C1CNCCO1)c1ccc2cnc(NC3CCOCC3)nc2c1 (stereo partly shown) [II-45]
11,3,COc1ccc([C@H](NC(=O)c2ccc3cnc(NC4CCOCC4)nc3c2)c2ccnn2C)cc1F [II-28]
12,7,COc1ccc([C@H](NC(=O)c2cc(F)c3cnc(NC4CCOCC4)nc3c2)c2cnn(C)c2)cc1 [II-22]
13,151,Cn1nccc1[C@@H](NC(=O)c1ccc2cnc(NC3CCOCC3)nc2c1)c1ccc(Cl)c(F)c1 [II-39]
14,4.2,COc1ccc([C@H](NC(=O)c2ccc3cnc(N[C@H]4C[C@@H](O)C4)nc3c2)c2cnn(C)c2)cc1F [II-8]
15,59.1,COc1ccc([C@H](NC(=O)c2cc(F)c3cnc(NC4CCOCC4)nc3c2)c2ncc[nH]2)cc1F [II-50]
16,1.2,Cn1cc([C@@H](NC(=O)c2cc(F)c3cnc(NC4CCOCC4)nc3c2)c2cccc(F)c2)cn1 [II-12]
17,10.8,COc1ccc([C@H](NC(=O)c2cc(F)c3cnc(Nc4ccnn4C)nc3c2)c2cnn(C)c2)cc1F [II-23]
18,8.5,COc1ccc([C@H](NC(=O)c2cc(F)c3cnc(Nc4ccnn4C)nc3c2)c2nccn2C)cc1F [II-54]

row,Molecule,IC50 [nM]
1,O=C(N[C@@H](c1ccc(OC(F)(F)F)c(F)c1)[C@H]1CCCNC1)c1ccc2cnc(NC3CCOCC3)nc2c1 [II-44],216
2,Cn1nccc1Nc1ncc2ccc(C(=O)NC(c3ccc(Cl)c(F)c3)C3(F)CCNC3)cc2n1 (stereo not shown) [II-42],34.6
